This note sets out measurements from patent US4529736A, “3a-(substituted phenyl)-2,3,3a,4,7,7a-hexahydro[or 3a-(substituted-phenyl)octahydro]-4,7-alkano-1H-isoindoles for treating depression in warm-blooded animals” (American Cyanamid Company, priority 1983, dated 1985).

A word on the inhibition: it is how much of the control response was suppressed.

Structures can show the parent of a compound that is named as a salt. Where two headings read alike, the source gives them in different places.

For assay [1], the target named is T1, [^3 H]-imipramine binding to human platelet membranes (Homo sapiens, UniProt P31645).
T1 construct: from tissue; host or cells: human platelets (sonicated, washed membranes)
T1 sequence (P31645 whole entry): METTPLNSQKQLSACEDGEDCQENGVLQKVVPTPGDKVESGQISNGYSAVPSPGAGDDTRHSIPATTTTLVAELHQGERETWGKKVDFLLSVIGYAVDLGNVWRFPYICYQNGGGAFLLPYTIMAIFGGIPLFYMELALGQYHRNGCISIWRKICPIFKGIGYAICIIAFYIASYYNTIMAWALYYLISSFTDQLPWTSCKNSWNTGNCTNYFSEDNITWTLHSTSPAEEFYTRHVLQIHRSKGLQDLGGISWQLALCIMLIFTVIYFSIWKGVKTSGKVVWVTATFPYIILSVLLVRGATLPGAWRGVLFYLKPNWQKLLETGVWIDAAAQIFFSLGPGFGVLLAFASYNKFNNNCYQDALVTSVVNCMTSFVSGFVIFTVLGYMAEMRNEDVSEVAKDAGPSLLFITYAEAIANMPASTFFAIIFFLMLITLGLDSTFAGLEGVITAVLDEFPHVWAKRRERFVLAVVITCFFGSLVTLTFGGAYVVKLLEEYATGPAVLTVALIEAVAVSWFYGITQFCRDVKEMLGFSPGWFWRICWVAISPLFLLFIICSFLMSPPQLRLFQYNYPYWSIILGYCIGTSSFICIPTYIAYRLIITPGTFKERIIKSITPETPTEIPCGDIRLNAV
The experiment in a line: Platelet Imipramine Binding: inhibition of [^3 H]-imipramine binding to human platelet membranes. Conditions: 50 μl of 50 μM compound stock + 200 μl membrane/[^3 H]imipramine mixture; 60 minutes at 0° C.; 10 μM desmethylimipramine = 0% binding. Here is the method:
The activity of the compounds of this invention as antidepressant agents was further verified in the following test which measures the ability of a test compound to inhibit [^3 H]-imipramine binding to human platelet membranes.
Human platelet concentrates were diluted 1:20 with antiprotease containing buffer of the following composition:
0.005N potassium chloride
3 mN ethylenediaminetetraacetic acid
1 mN ethyleneglycol-bis-(β-aminoethyl ether)-N,N'-tetraacetic acid
This buffer was kept at pH 6.8 to prevent platelet release and aggregation.
The diluted platelets were centrifuged at 2500 g and then resuspended in 50 volumes of the same buffer. The cells were then ruptured with a Branson sonicator while the suspension was maintained in an ice bath. The ruptured cells were then centrifuged at 18,000 g, resuspended in fresh buffer and recentrifuged at 18,000 g. These membranes were diluted with the above antiprotease buffer which had been adjusted to pH 7.4 and to a concentration of 3.0 mg/ml.
The test compounds were dissolved in dimethylsulfoxide at a concentration of 50 mM and then diluted 1:10 in either water, 0.1M hydrochloric acid or 0.1M sodium hydroxide. They were then diluted 1:100 in buffer to 50 μM, and 50 μl of this stock solution was placed in triplicate test tubes. The tubes were cooled to 0° C. and 200 μl of the following mixture were added:
100 μl of 3 mg/ml membrane in buffer
50 μl of 15 nM[^3 H]imipramine in buffer
The tubes were incubated for 60 minutes at 0° C. Controls contain either buffer alone (100%) of 10 μM of final desmethylimipramine (DMI) (0%).
The samples were diluted with 5 ml of buffer [0.12M-sodium chloride, 0.05M-tris buffer, 0.005M-potassium chloride (pH 7.4)], vacuum filtered and washed twice with 5 ml of buffer. Radioactivity was measured in a liquid scintillation counter and the degree of binding was calculated.

Assay [2] deals with tetrabenazine-induced ptosis. The experiment in a line: Tetrabenazine Induced Ptosis (inhibition of ptosis). The settings on record: Mus musculus, read-out: % Mice Responding. Format: in vivo. The protocol:
The antidepressant activity of the compounds of this invention was further established in the following test. Inhibition of tetrabenazine-induced ptosis is observed concomitantly with the inhibition of tetrabenazine-induced depression. Ptosis is defined as more than 75% closure of palpebral aperture induced in animals by the administration of tetrabenazine methanesulfonate. The compounds were administered orally (P.O.) or intraperitoneally (I.P.) at 25 mg/kg to groups of 10 mice. Thirty minutes later, tetrabenazine methanesulfonate was administered intraperitoneally to each mouse at a dose of 39 mg/kg. Thirty minutes after the injection of tetrabenazine, the mice were placed on an observation disc and examined for 10 seconds for inhibition of ptosis. […]

For assay [3], the system named is tetrabenazine-induced depression. The assay can be described thus: Tetrabenazine Induced Depression (exploratory behaviour). Conditions: Mus musculus, read-out: % Mice Protected. Format: in vivo. Here is the method:
The compounds of this invention are useful as antidepressant agents in warm-blooded animals as verified by the following test. The antidepressant properties of these compounds were tested by measuring their ability to counteract depression induced in animals by the administration of tetrabenazine methanesulfonate. Each test compound was administered orally (P.O.) or intraperitoneally (I.P.) to 10 mice at a dose of 25 mg/kg of body weight. Thirty minutes later, tetrabenazine methanesulfonate was administered intraperitoneally to each mouse at a dose of 39 mg/kg of body weight, which dose is known to depress markedly the exploratory behaviour of normal mice. Thirty minutes later the mice were tested for their exploratory behaviour as described by E. Greenblatt and A. C. Osterberg, Toxicology and Applied Pharmacology, 7, 566-578 (1965).

For assay [4], the system named is stress induced depressed ("coping") behavior. The assay can be described thus: Stress Induced Depressed Behavior Test. The settings on record: rats, intraperitoneally at 5-20 mg/kg; warm (44.5° C.) surface for 15 minutes; high ratio = active. Type of assay: in vivo. The protocol:
The compounds of this invention are active as antistress agents in warm-blooded animals as evidenced by their results when tested in the Stress Induced Depressed Behavior Test. In this test, rats were confined on a warm (44.5° C.), but aversive, surface for 15 minutes. After 5-6 minutes, control rats began to show episodes of depressed ("coping") behavior where they remained flat and immobile for short to long periods of time. The onset and total duration of this behavior was timed. A ratio of onset/duration was calculated. The test compounds were administered intraperitoneally at 5-20 mg/kg of body weight. Active compounds prolong the time of onset and shorten the duration time resulting in high ratios.

On to `Cc1ccc([C@@]23CNC[C@@H]2[C@@H]2C=C[C@H]3C2)cc1` (relative stereo) [2,3,3a,4,7,7a-Hexahydro-3a-(4-methylphenyl)-4,7-methano-1H-isoindole maleate (1:1)], for which the inhibition at 10 µM in assay [1] was determined as 94%. Moreover, the responders at 25 mg/kg in assay [2] (ip) amounted to 60%.
As for `Clc1ccc([C@@]23CNC[C@@H]2[C@@H]2C=C[C@H]3C2)cc1` (relative stereo) [3-a-(4-Chlorophenyl)-2,3,3a,4,7,7a-hexahydro-4,7-methano-1H-isoindole fumarate], the inhibition at 10 µM in assay [1] is 98%. In addition, the responders at 25 mg/kg in assay [2] (po) was 80%; in assay [3] (ip), 60%.
`CN1C[C@@H]2C3CCC(CC3)[C@]2(c2ccc(F)c(F)c2)C1` (relative stereo) [3a-(3,4-Difluorophenyl)octahydro-2-methyl-4,7-ethano-1H-isoindole fumarate (1:1)]: the inhibition at 10 µM in assay [1] was 100%.
With `c1ccc([C@@]23CNC[C@@H]2[C@@H]2CC[C@H]3C2)cc1` (relative stereo) [Octahydro-3a-phenyl-4,7-methano-1H-isoindole fumarate], in assay [1], the inhibition at 10 µM came out at 98%. Further, the responders at 25 mg/kg in assay [2] (ip) and in assay [3] (ip) was 50% in each case.
On to `Cc1ccc([C@@]23CN(C)C[C@@H]2[C@@H]2C=C[C@H]3C2)cc1` (relative stereo) [2,3,3a,4,7,7a-Hexahydro-2-methyl-3a-(4-methylphenyl)-4,7-methano-1H-isoindole maleate (1:1)], for which the inhibition at 10 µM in assay [1] worked out at 98%. For the same compound, the responders at 25 mg/kg in assay [2] (po) worked out at 90%; in assay [3] (ip), 80%.
Consider `CN1C[C@@H]2[C@@H]3C=C[C@@H](C3)[C@]2(c2cccc(O)c2)C1` (relative stereo) [3-(1,2,3,4,7,7a-Hexahydro-2-methyl-4,7-methano-3aH-isoindol-3a-yl)phenol], for which the inhibition at 10 µM in assay [1] stood at 86%. For the same compound, the responders at 25 mg/kg stood at 100% in assay [2] (po) and 60% in assay [3] (po).
On to `Clc1ccc([C@@]23CNC[C@@H]2[C@@H]2CC[C@H]3C2)cc1Cl` (relative stereo) [3a-(3,4-Dichlorophenyl)octahydro-4,7-methano-1H-isoindole hydrochloride], for which, in assay [1], the inhibition at 10 µM was determined as 96%. Further, the values for the responders at 25 mg/kg in assay [2] (ip) and in assay [3] (po) were 100% and 40%, respectively. In addition, the Ratio onset/duration in assay [4] was 76.
With `CN1C[C@@H]2[C@@H]3C=C[C@@H](C3)[C@]2(c2cccc(Cl)c2)C1` (relative stereo) [3a-(3-Chlorophenyl)2,3,3a,4,7,7a-hexahydro-2-methyl-4,7-methano-1H-isoindole fumarate (1:1)], the inhibition at 10 µM in assay [1] turned out to be 86%. In addition, the responders at 25 mg/kg in assay [2] (ip) was found to be 100%; in assay [3] (ip), 60%. Moreover, the Ratio onset/duration in assay [4] came out at 13.
As to `CN1C[C@@H]2[C@@H]3CC[C@@H](C3)[C@]2(c2ccc(F)c(F)c2)C1` (relative stereo) [3a-(3,4-Difluorophenyl)octahydro-2-methyl-4,7-methano-1H-isoindole fumarate (1:1)], the inhibition at 10 µM in assay [1] was found to be 95%. Further, the responders at 25 mg/kg turned out to be 70% in assay [2] (ip) and 50% in assay [3] (ip).
Turning to `CN1C[C@@H]2C3CCC(CC3)[C@]2(c2ccc(Cl)c(Cl)c2)C1` (relative stereo) [3a-(3,4-Dichlorophenyl)octahydro-2-methyl-4,7-ethano-1H-isoindole fumarate (1:1)], the inhibition at 10 µM in assay [1] was 94%. Moreover, the figures for the responders at 25 mg/kg in assay [2] (ip) and in assay [3] (po) were 90% and 50%, respectively. The Ratio onset/duration in assay [4] was determined as 83.
As to `C[N+]1(C)C[C@@H]2[C@@H]3CC[C@@H](C3)[C@]2(c2ccc(N=[N+]=[N-])cc2)C1` (relative stereo) [3a-(4-Azidophenyl)octahydro-2,2-dimethyl-4,7-methano-1H-isoindolium iodide], the inhibition at 10 µM in assay [1] is 88%. The responders at 25 mg/kg in assay [2] (po, P.O., 25 mg/kg, responders: 75% or greater opening of palpebral aperture) worked out at 100%; in assay [3] (po, P.O., 25 mg/kg, 10 mice, tetrabenazine methanesulfonate 39 mg/kg I.P.), 30%.
Take `CN1C[C@@H]2[C@@H]3CC[C@@H](C3)[C@]2(c2ccc(Cl)cc2)C1` (relative stereo) [3a-(4-Chlorophenyl)octahydro-2-methyl-4,7-methano-1H-isoindole fumarate (1:1)]: the inhibition at 10 µM in assay [1] came out at 91%. Moreover, the responders at 25 mg/kg in assay [2] (ip) was 90%; in assay [3] (ip), 60%. Further, the Ratio onset/duration in assay [4] stood at 20.
With `CN1C[C@@H]2[C@@H]3C=C[C@@H](C3)[C@]2(c2ccc(N)cc2)C1` (relative stereo) [4-(1,2,3,4,7,7a-Hexahydro-2-methyl-4,7-methano-3aH-isoindol-3a-yl)benzenamine fumarate (1:2)], the figures for the responders at 25 mg/kg in assay [2] (ip) and in assay [3] (po) were 100% and 70%, respectively.
On to `CN1C[C@@H]2[C@@H]3CC[C@@H](C3)[C@]2(c2ccc([N+](=O)[O-])cc2)C1` (relative stereo) [Octahydro-2-methyl-3a-(4-nitrophenyl)-4,7-methano-1H-isoindole fumarate (1:1)], for which the inhibition at 10 µM in assay [1] came out at 66%. The responders at 25 mg/kg came out at 70% in assay [2] (ip) and 30% in assay [3] (ip).
Take `CN1C[C@@H]2[C@@H]3CC[C@@H](C3)[C@]2(c2ccc(N)cc2)C1` (relative stereo) [4-(1,2,3,4,5,6,7,7a-Octahydro-2-methyl-4,7-methano-3aH-isoindol-3a-yl)benzenamine fumarate (1:1)]: in assay [1], the inhibition at 10 µM is 80%. In addition, the responders at 25 mg/kg in assay [2] (ip) was found to be 100%; in assay [3] (ip), 50%.
In the case of `COc1cccc([C@@]23CN(C)C[C@@H]2[C@@H]2C=C[C@H]3C2)c1` (relative stereo) [2,3,3a,4,7,7a-Hexahydro-3a-(3-methoxyphenyl)-2-methyl-4,7-methano-1H-isoindole maleate (1:1)], in assay [1], the inhibition at 10 µM came to 86%. Moreover, the responders at 25 mg/kg in assay [2] (po) was determined as 60%; in assay [3] (po), 40%.
Turning to `CCN1C[C@@H]2C3CCC(CC3)[C@]2(c2ccc(Cl)c(Cl)c2)C1` (relative stereo) [3a-(3,4-Dichlorophenyl)-2-ethyloctahydro-4,7-ethano-1H-isoindole fumarate (1:1)], the inhibition at 10 µM in assay [1] came to 89%. The results for the responders at 25 mg/kg in assay [2] (ip) and in assay [3] (po) were 100% and 50%, respectively. Moreover, in assay [4], the Ratio onset/duration is reported as 66.
For `CN1C[C@@H]2[C@@H]3C=C[C@@H](C3)[C@]2(c2cccc(C(F)(F)F)c2)C1` (relative stereo) [2,3,3a,4,7,7a-Hexahydro-2-methyl-3a-[3-(trifluoromethyl)phenyl]-4,7-methano-1H-isoindole fumarate], the inhibition at 10 µM in assay [1] is 91%. For the same compound, the responders at 25 mg/kg was 100% in assay [2] (ip) and 70% in assay [3] (ip).
